Experimental data reported in ChEMBL document CHEMBL5724914, “Linking interpersonal differences in gut microbiota composition and drug biotransformation activity” (2024).

Key:
[1] = human gut metagenome, 24 h, 2 µM
[2] = The drug is tested on WLS-220 corresponding to human gut metagenome with ENA study accession number: PRJEB37062 and ENA sample accession number: ERS12561769 for biotransformation under anaerobic condition. The drug concentrations were measured over 9 timepoints collected between 0 and 24 hours of incubation by liquid-chromatography-coupled mass spectrometry (LC–MS); conditions: 2 µM
[3] = The drug is tested on WLS-170 corresponding to human gut metagenome with ENA study accession number: PRJEB37062 and ENA sample accession number: ERS12561762 for biotransformation under anaerobic condition. The drug concentrations were measured over 9 timepoints collected between 0 and 24 hours of incubation by liquid-chromatography-coupled mass spectrometry (LC–MS); conditions: 2 µM
[4] = human gut metagenome, 24 h, 2 µM; remark: listed apart in the source
[5] = human gut metagenome, 24 h, 2 µM; remark: listed apart in the source
[6] = The drug is tested on WLS-027 corresponding to human gut metagenome with ENA study accession number: PRJEB37062 and ENA sample accession number: ERS12561744 for biotransformation under anaerobic condition. The drug concentrations were measured over 9 timepoints collected between 0 and 24 hours of incubation by liquid-chromatography-coupled mass spectrometry (LC–MS); conditions: 2 µM
[7] = The drug is tested on Z-024 corresponding to pig gut metagenome with ENA study accession number: PRJEB37062 and ENA sample accession number: ERS12561823 for biotransformation under anaerobic condition. The drug concentrations were measured over 9 timepoints collected between 0 and 24 hours of incubation by liquid-chromatography-coupled mass spectrometry (LC–MS); conditions: 2 µM
[8] = The drug is tested on Z-006 corresponding to mouse gut metagenome with ENA study accession number: PRJEB37062 and ENA sample accession number: ERS12561806 for biotransformation under anaerobic condition. The drug concentrations were measured over 9 timepoints collected between 0 and 24 hours of incubation by liquid-chromatography-coupled mass spectrometry (LC–MS); conditions: 2 µM
[9] = The drug is tested on Z-021 corresponding to metagenome with ENA study accession number: PRJEB37062 and ENA sample accession number: ERS12561820 for biotransformation under anaerobic condition. The drug concentrations were measured over 9 timepoints collected between 0 and 24 hours of incubation by liquid-chromatography-coupled mass spectrometry (LC–MS); conditions: 2 µM
[10] = human gut metagenome, 24 h, 2 µM; remark: listed apart in the source
[11] = The drug is tested on WLS-010 corresponding to human gut metagenome with ENA study accession number: PRJEB37062 and ENA sample accession number: ERS12561743 for biotransformation under anaerobic condition. The drug concentrations were measured over 9 timepoints collected between 0 and 24 hours of incubation by liquid-chromatography-coupled mass spectrometry (LC–MS); conditions: 2 µM
[12] = The drug is tested on WLS-350 corresponding to human gut metagenome with ENA study accession number: PRJEB37062 and ENA sample accession number: ERS12561789 for biotransformation under anaerobic condition. The drug concentrations were measured over 9 timepoints collected between 0 and 24 hours of incubation by liquid-chromatography-coupled mass spectrometry (LC–MS); conditions: 2 µM
[13] = human gut metagenome, 24 h, 2 µM; remark: listed apart in the source
[14] = The drug is tested on Z-016 corresponding to mouse gut metagenome with ENA study accession number: PRJEB37062 and ENA sample accession number: ERS12561815 for biotransformation under anaerobic condition. The drug concentrations were measured over 9 timepoints collected between 0 and 24 hours of incubation by liquid-chromatography-coupled mass spectrometry (LC–MS); conditions: 2 µM
[15] = human gut metagenome, 24 h, 2 µM; remark: listed apart in the source
[16] = human gut metagenome, 24 h, 2 µM; remark: listed apart in the source
[17] = human gut metagenome, 24 h, 2 µM; remark: listed apart in the source
[18] = human gut metagenome, 24 h, 2 µM; remark: listed apart in the source
[19] = The drug is tested on WLS-073 corresponding to human gut metagenome with ENA study accession number: PRJEB37062 and ENA sample accession number: ERS12561749 for biotransformation under anaerobic condition. The drug concentrations were measured over 9 timepoints collected between 0 and 24 hours of incubation by liquid-chromatography-coupled mass spectrometry (LC–MS); conditions: 2 µM
[20] = The drug is tested on WLS-038 corresponding to human gut metagenome with ENA study accession number: PRJEB37062 and ENA sample accession number: ERS12561745 for biotransformation under anaerobic condition. The drug concentrations were measured over 9 timepoints collected between 0 and 24 hours of incubation by liquid-chromatography-coupled mass spectrometry (LC–MS); conditions: 2 µM

Measured: Bacterial Biotransformation
Note: call rule not given here.

Nc1nnc(-c2cccc(Cl)c2Cl)c(N)n1 [LAMOTRIGINE]
Compound metabolized: [3] | [4] | [15] | [17]
Compound NOT metabolized: all other assays above

O=C(NC(Cc1cc(=O)[nH]c2ccccc12)C(=O)O)c1ccc(Cl)cc1 (stereo not given) [REBAMIPIDE]
Compound metabolized: [1] | [7] | [9] | [11] | [18]
Compound NOT metabolized: all other assays above

c1ccc2[nH]c(-c3cscn3)nc2c1 [THIABENDAZOLE]
Compound metabolized: [18]
Compound NOT metabolized: all other assays above
